*1 amine or outer side, *2 acyl side, *3 side chain or, on linkers, in order; H or OH if unused. Where a SMILES comes first, the peptide text is derived from it. Bridges are numbered along the chain shown (N, C = ends). [ ]: non-standard residue; d: D form. The star is where a group is joined. X14 = NC(=O)[C@H](CCCCNC(=O)CN1CCN2CCN3CCN(CC1)CC(=O)[O][In]([O]C(=O)C2)[O]C(=O)C3)NC(=O)CCC(=O)NCCCOCCOCCOCCCN*; X16 = NC(=O)[C@H](CCCCNC(=O)CN1CCN2CCN3CCN(CC1)CC(=O)[O][Lu]([O]C(=O)C2)[O]C(=O)C3)NC(=O)CCC(=O)NCCCOCCOCCOCCCN*; X13 = O=C(CN1CCN2CCN3CCN(CC1)CC(=O)[O][Lu]([O]C(=O)C2)[O]C(=O)C3)NCCCOCCOCCOCCCN*; DOTA(In) = O=C1CN2CCN3CCN(CC(=O)*)CCN(CC2)CC(=O)[O][In]([O]1)[O]C(=O)C3; DOTA(Lu) = O=C1CN2CCN3CCN(CC(=O)*)CCN(CC2)CC(=O)[O][Lu]([O]1)[O]C(=O)C3; Trp(5-Cl) = N[C@@H](Cc1c[nH]c2ccc(Cl)cc12)C(=O)O; Pyridine(2,6-diCH2) = c1cc(C[*:1])nc(C[*:2])c1; 1Nal = N[C@@H](Cc1cccc2ccccc12)C(=O)O; mXylylene = c1cc(C[*:1])cc(C[*:2])c1; X6 = c1cc(CSCCN[*:2])nc(C[*:1])c1; X7 = c1cc(CSCCN[*:2])cc(C[*:1])c1; Hyp = O=C(O)[C@@H]1C[C@@H](O)CN1; X1 = O=C(CN1CCC(N[*:1])CC1)[*:2]; Suc = O=C(CCC(=O)[*:2])[*:1]; αMeS = C[C@](N)(CO)C(=O)O; Ac6c = NC1(C(=O)O)CCCCC1; Thp = NC1(C(=O)O)CCOCC1; Aib = CC(C)(N)C(=O)O; Sar = CNCC(=O)O
What follows are compounds tested against T1, GIPR (CHO-K1-hGIPR cells) (Homo sapiens, UniProt P48546) (assay: FACS binding assay). Conditions: competition with 20 nM GIP-057, 4° C., 1 hour, read-out: pIC50 Category (converted).
T1 construct: host or cells: CHO-K1
T1 sequence (P48546 22-466): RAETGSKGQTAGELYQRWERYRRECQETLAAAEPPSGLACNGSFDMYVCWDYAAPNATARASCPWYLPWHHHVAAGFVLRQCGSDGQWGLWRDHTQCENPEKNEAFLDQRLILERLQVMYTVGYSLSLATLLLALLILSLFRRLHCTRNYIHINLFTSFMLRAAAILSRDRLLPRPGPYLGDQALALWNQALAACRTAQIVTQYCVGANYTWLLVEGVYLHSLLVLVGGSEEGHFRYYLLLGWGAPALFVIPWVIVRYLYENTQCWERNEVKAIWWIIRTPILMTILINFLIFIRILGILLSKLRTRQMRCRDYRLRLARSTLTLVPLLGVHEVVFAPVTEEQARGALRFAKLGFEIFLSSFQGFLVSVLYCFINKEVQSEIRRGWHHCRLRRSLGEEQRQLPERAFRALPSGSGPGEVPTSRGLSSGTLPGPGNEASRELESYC
In short: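 Median fluorescence in the APC channel, measured on washed CHO-K1 cells overexpressing human GIPR, was fitted by four-parameter logistic regression against peptide concentration to yield EC50 or IC50 values. Secondary labelling used APC-streptavidin (1 μg/mL, 30 min, ice).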
For `CC[C@H](C)[C@@H]1NC(=O)[C@H](CC(C)C)NC(=O)C(C)(C)NC(=O)[C@@H](NC(=O)[C@@H](CC(C)C)NC(=O)[C@H](CCC(=O)O)NC(=O)[C@@H]2CCCN2C(=O)[C@H](Cc2c[nH]c3ccc(Cl)cc23)NC(=O)[C@H](Cc2c[nH]c3ccccc23)NC(=O)[C@H](CC(=O)O)NC(C)=O)CSCc2cccc(c2)CSC[C@@H](C(=O)NCCCOCCOCCOCCCNC(=O)CCC(=O)N[C@@H](CCCCNC(=O)CN2CCN3CCN4CCN(CC2)CC(=O)[O][In]([O]C(=O)C3)[O]C(=O)C4)C(N)=O)NC1=O` [GIP-164, Ac-Asp-Trp-5Clw-Pro-Glu-leu-[Cys(3MeBn)-Aib-Leu-Ile-Cys]-Ttds-Lys(InDOTA)-NH2] (Ac-DW[Trp(5-Cl)]PE[dL]C[Aib]LIC-X14; linker 7-11 via mXylylene), the IC50 was < 10 nM.
In the case of `CC[C@H](C)[C@@H]1NC(=O)[C@H](CC(C)C)NC(=O)C(C)(C)NC(=O)[C@@H](NC(=O)[C@@H](CC(C)C)NC(=O)[C@H](CCC(=O)O)NC(=O)[C@@H]2CCCN2C(=O)[C@H](Cc2cccc3ccccc23)NC(=O)[C@H](Cc2c[nH]c3ccccc23)NC(=O)[C@H](CC(=O)O)NC(C)=O)CSCc2cccc(c2)CSC[C@@H](C(=O)NCCCOCCOCCOCCCNC(=O)CCC(=O)N[C@@H](CCCCNC(=O)CN2CCN3CCN4CCN(CC2)CC(=O)[O][In]([O]C(=O)C3)[O]C(=O)C4)C(N)=O)NC1=O` [GIP-165, Ac-Asp-Trp-1Ni-Pro-Glu-leu-[Cys(3MeBn)-Aib-Leu-Ile-Cys]-Ttds-Lys(InDOTA)-NH2] (Ac-DW[1Nal]PE[dL]C[Aib]LIC-X14; linker 7-11 via mXylylene), the IC50 is reported as < 10 nM.
For `CC[C@H](C)[C@@H]1NC(=O)[C@H](CC(C)C)NC(=O)C2(CCCCC2)NC(=O)[C@@H](NC(=O)[C@@H](CC(C)C)NC(=O)[C@H](CCC(=O)O)NC(=O)[C@@H]2CCCN2C(=O)[C@H](Cc2cccc3ccccc23)NC(=O)[C@H](Cc2c[nH]c3ccccc23)NC(=O)[C@H](CC(=O)O)NC(C)=O)CSCc2cccc(c2)CSC[C@@H](C(=O)NCCCOCCOCCOCCCNC(=O)CCC(=O)N[C@@H](CCCCNC(=O)CN2CCN3CCN4CCN(CC2)CC(=O)[O][In]([O]C(=O)C3)[O]C(=O)C4)C(N)=O)NC1=O` [GIP-166, Ac-Asp-Trp-1Ni-Pro-Glu-leu-[Cys(3MeBn)-Egz-Leu-Ile-Cys]-Ttds-Lys(InDOTA)-NH2] (Ac-DW[1Nal]PE[dL]C[Ac6c]LIC-X14; linker 7-11 via mXylylene), the IC50 was < 10 nM.
`CC[C@H](C)[C@@H]1NC(=O)[C@H](CC(C)C)NC(=O)C2(CCOCC2)NC(=O)[C@@H](NC(=O)[C@@H](CC(C)C)NC(=O)[C@H](CCC(=O)O)NC(=O)[C@@H]2C[C@@H](O)CN2C(=O)[C@H](Cc2c[nH]c3ccc(Cl)cc23)NC(=O)[C@H](Cc2c[nH]c3ccccc23)NC(=O)CCC(=O)O)CSCc2cccc(n2)CSC[C@@H](C(=O)NC2CCN(CC(=O)N[C@@H](CCCCNC(=O)CN3CCN4CCN5CCN(CC3)CC(=O)[O][In]([O]C(=O)C4)[O]C(=O)C5)C(N)=O)CC2)NC1=O` [GIP-168, HO-Succinyl-Trp-5Clw-Hyp-Glu-leu-[Cys(2Lut)-Thp-Leu-Ile-Cys]-APAc-Lys(InDOTA)-NH2] (Suc-W[Trp(5-Cl)][Hyp]E[dL]C[Thp]LIC[X1]K(DOTA(In))-NH2; linker 6-10 via Pyridine(2,6-diCH2)) was tested, and the IC50 was < 10 nM.

Same assay, conditions: pIC50 Category, competition with 20 nM GIP-057, 4° C., 1 hour
`CC[C@H](C)[C@@H]1NC(=O)[C@H](CC(C)C)NC(=O)C(C)(C)NC(=O)[C@@H](NC(=O)[C@@H](CC(C)C)NC(=O)[C@H](CCC(=O)O)NC(=O)[C@@H]2CCCN2C(=O)[C@H](Cc2c[nH]c3ccc(Cl)cc23)NC(=O)[C@H](Cc2c[nH]c3ccccc23)NC(=O)[C@H](CC(=O)O)NC(C)=O)CSCc2cccc(c2)CSC[C@@H](C(=O)NCCCOCCOCCOCCCNC(=O)CCC(=O)N[C@@H](CCCCNC(=O)CN2CCN3CCN4CCN(CC2)CC(=O)[O][Lu]([O]C(=O)C3)[O]C(=O)C4)C(N)=O)NC1=O` [GIP-156, Ac-Asp-Trp-5Clw-Pro-Glu-leu-[Cys(3MeBn)-Aib-Leu-Ile-Cys]-Ttds-Lys(LuDOTA)-NH2] (Ac-DW[Trp(5-Cl)]PE[dL]C[Aib]LIC-X16; linker 7-11 via mXylylene) was tested, and the IC50 was < 10 nM.
For `CC[C@H](C)[C@@H]1NC(=O)[C@H](CC(C)C)NC(=O)[C@](C)(CO)NC(=O)[C@@H](NC(=O)[C@@H](CC(C)C)NC(=O)[C@H](CCC(=O)O)NC(=O)[C@@H]2CCCN2C(=O)[C@H](Cc2c[nH]c3ccc(Cl)cc23)NC(=O)[C@H](Cc2c[nH]c3ccccc23)NC(=O)[C@H](CC(=O)O)NC(=O)CCC(=O)NCCCOCCOCCOCCCNC(=O)CN2CCN3CCN4CCN(CC2)CC(=O)[O][Lu]([O]C(=O)C3)[O]C(=O)C4)CSCc2cccc(c2)CSCCNC1=O` [GIP-157, LuDOTA-Ttds-Asp-Trp-5Clw-Pro-Glu-leu-[Cys(3MeBn)-Ams-Leu-Ile-AET]] ({X13-Suc}-DW[Trp(5-Cl)]PE[dL]C[αMeS]LI; linker 7-C via X7), the IC50 was < 10 nM.
For `CC[C@H](C)[C@@H]1NC(=O)[C@H](CC(C)C)NC(=O)C2(CCOCC2)NC(=O)[C@@H](NC(=O)[C@@H](CC(C)C)NC(=O)[C@H](CCC(=O)O)NC(=O)[C@@H]2CCCN2C(=O)[C@H](Cc2c[nH]c3ccc(Cl)cc23)NC(=O)[C@H](Cc2c[nH]c3ccccc23)NC(=O)[C@H](CC(=O)O)NC(=O)CCC(=O)NCCCOCCOCCOCCCNC(=O)CN2CCN3CCN4CCN(CC2)CC(=O)[O][Lu]([O]C(=O)C3)[O]C(=O)C4)CSCc2cccc(c2)CSCCNC1=O` [GIP-158, LuDOTA-Ttds-Asp-Trp-5Clw-Pro-Glu-leu-[Cys(3MeBn)-Thp-Leu-Ile-AET]] ({X13-Suc}-DW[Trp(5-Cl)]PE[dL]C[Thp]LI; linker 7-C via X7), the IC50 was < 10 nM.
`CC[C@H](C)[C@@H]1NC(=O)[C@H](CC(C)C)NC(=O)C(C)(C)NC(=O)[C@@H](NC(=O)[C@@H](CC(C)C)NC(=O)[C@H](CCC(=O)O)NC(=O)[C@@H]2C[C@@H](O)CN2C(=O)[C@H](Cc2c[nH]c3ccc(Cl)cc23)NC(=O)[C@H](Cc2c[nH]c3ccccc23)NC(=O)[C@H](CC(=O)O)NC(=O)CCC(=O)NCCCOCCOCCOCCCNC(=O)CN2CCN3CCN4CCN(CC2)CC(=O)[O][Lu]([O]C(=O)C3)[O]C(=O)C4)CSCc2cccc(c2)CSCCNC1=O` [GIP-159, LuDOTA-Ttds-Asp-Trp-5Clw-Hyp-Glu-leu-[Cys(3MeBn)-Aib-Leu-Ile-AET]] ({X13-Suc}-DW[Trp(5-Cl)][Hyp]E[dL]C[Aib]LI; linker 7-C via X7) was tested, and the IC50 was < 10 nM.
In the case of `CC[C@H](C)[C@@H]1NC(=O)[C@H](CC(C)C)NC(=O)C(C)(C)NC(=O)[C@@H](NC(=O)[C@@H](CC(C)C)NC(=O)[C@H](CCC(=O)O)NC(=O)CN(C)C(=O)[C@H](Cc2c[nH]c3ccc(Cl)cc23)NC(=O)[C@H](Cc2c[nH]c3ccccc23)NC(=O)[C@H](CC(=O)O)NC(=O)CCC(=O)NCCCOCCOCCOCCCNC(=O)CN2CCN3CCN4CCN(CC2)CC(=O)[O][Lu]([O]C(=O)C3)[O]C(=O)C4)CSCc2cccc(c2)CSCCNC1=O` [GIP-160, LuDOTA-Ttds-Asp-Trp-5Clw-Nmg-Glu-leu-[Cys(3MeBn)-Aib-Leu-Ile-AET]] ({X13-Suc}-DW[Trp(5-Cl)][Sar]E[dL]C[Aib]LI; linker 7-C via X7), the IC50 is reported as < 10 nM.
With `CC[C@H](C)[C@@H]1NC(=O)[C@H](CC(C)C)NC(=O)C(C)(C)NC(=O)[C@@H](NC(=O)[C@@H](CC(C)C)NC(=O)[C@H](CCC(=O)O)NC(=O)[C@@H]2CCCN2C(=O)[C@H](Cc2c[nH]c3ccc(Cl)cc23)NC(=O)[C@H](Cc2c[nH]c3ccccc23)NC(=O)[C@H](CC(=O)O)NC(=O)CN2CCC(NC(=O)CN3CCN4CCN5CCN(CC3)CC(=O)[O][Lu]([O]C(=O)C4)[O]C(=O)C5)CC2)CSCc2cccc(c2)CSCCNC1=O` [GIP-161, LuDOTA-APAc-Asp-Trp-5Clw-Pro-Glu-leu-[Cys(3MeBn)-Aib-Leu-Ile-AET]] ({DOTA(Lu)}-[X1]DW[Trp(5-Cl)]PE[dL]C[Aib]LI; linker 8-C via X7) the IC50 was < 10 nM.
`CC[C@H](C)[C@@H]1NC(=O)[C@H](CC(C)C)NC(=O)C2(CCOCC2)NC(=O)[C@@H](NC(=O)[C@@H](CC(C)C)NC(=O)[C@H](CCC(=O)O)NC(=O)[C@@H]2C[C@@H](O)CN2C(=O)[C@H](Cc2c[nH]c3ccc(Cl)cc23)NC(=O)[C@H](Cc2c[nH]c3ccccc23)NC(=O)[C@H](CC(=O)O)NC(=O)CN2CCC(NC(=O)CN3CCN4CCN5CCN(CC3)CC(=O)[O][Lu]([O]C(=O)C4)[O]C(=O)C5)CC2)CSCc2cccc(n2)CSCCNC1=O` [GIP-162, LuDOTA-APAc-Asp-Trp-5Clw-Hyp-Glu-leu-[Cys(2Lut)-Thp-Leu-Ile-AET]] ({DOTA(Lu)}-[X1]DW[Trp(5-Cl)][Hyp]E[dL]C[Thp]LI; linker 8-C via X6) was tested, and the IC50 was < 10 nM.
In the case of `CC[C@H](C)[C@@H]1NC(=O)[C@H](CC(C)C)NC(=O)C(C)(C)NC(=O)[C@@H](NC(=O)[C@@H](CC(C)C)NC(=O)[C@H](CCC(=O)O)NC(=O)[C@@H]2CCCN2C(=O)[C@H](Cc2c[nH]c3ccc(Cl)cc23)NC(=O)[C@H](Cc2c[nH]c3ccccc23)NC(=O)[C@H](CC(=O)O)NC(=O)CCC(=O)NCCCOCCOCCOCCCNC(=O)CN2CCN3CCN4CCN(CC2)CC(=O)[O][Lu]([O]C(=O)C3)[O]C(=O)C4)CSCc2cccc(n2)CSCCNC1=O` [GIP-163, LuDOTA-Ttds-Asp-Trp-5Clw-Pro-Glu-leu-[Cys(2Lut)-Aib-Leu-Ile-AET]] ({X13-Suc}-DW[Trp(5-Cl)]PE[dL]C[Aib]LI; linker 7-C via X6), the IC50 is reported as < 10 nM.

From patent publication US20250296971A1, “GASTRIC INHIBITORY PEPTIDE RECEPTOR LIGANDS” (priority 2021, published 2025)
